Experimental data taken from article PMC8080595, “Discovery of a novel RORγ antagonist with skin-restricted exposure for topical treatment of mild to moderate psoriasis” (Scientific Reports, 2021).
Like-named read-outs stand apart in the source and are kept apart here. Values belong to the molecule of their own block, whether it stands above or below them.

Columns and labels:
[1] = Liver microsomal stability, rat; format: in vitro ADME; details: liver microsomes, pH 7.4, read-out: Liver microsomal stability, t1/2, Rat
Procedure: (§1) The compound was mixed with 0.5 mg/ml human liver microsome (Thermal Fisher) at a final concentration of 1 µM in 100 mM potassium phosphate buffer, pH 7.4. The reactions were initiated by the addition of 1 mM NADPH. Samples in duplicate were incubated at 37 °C with mixing. 100 µL aliquots were transferred after 0, 5, 10, 30, 45, 60 minutes to a new tube with 300 µL acetonitrile, incubated on ice for 30 minutes, centrifuged at 1800×g at 4 °C for 10 minutes. The supernatants were transferred to glass vials subjected to LC/MS analysis. Peak areas were measured to calculate half-life according to the formula t1/2 = − 0.693/slope of linear regression analysis of ln [concentration] versus incubation time. Similar methods were applied to access mouse and rat liver microsomal stability of the compounds.

[2] = system: IL-17 secretion from human PBMCs; assay: Human IL-17 production assay using human PBMC; format: cell-based; details: cytostim stimulation 72 h
Procedure: To confirm cellular on-target effects, we investigated the inhibition of selected RORγ antagonists on RORγ-regulated IL-17 secretion using human PBMC. Human IL-17-producing cells were readily formed following cytostim stimulation. In human PBMC stimulated with cytostim for 72 h, differentiation of Th17 cells was confirmed by increased secretion of IL-17 (291 pg/mL) in cell culture supernatant compared to basal level of IL-17 (20 pg/mL IL-17 without cytostim stimulation), […] of IL-17 secretion.
Human PBMCs (Zenbio) in TexMACS media were stimulated by cytostim (Miltenyi) for 72 h following the vendor's instruction. Human IL-17A in cell culture supernatant was measured using AlphaLISA human IL-17A Biotin-free detection kit (Perkin Elmer) according to the manufacturer’s protocol.

[3] = Liver microsomal stability, human; format: in vitro ADME; details: pH 7.4
Procedure: as §1

RORγ LBD = target: T1, RORγ LBD (Homo sapiens, UniProt P51449); assay: LanthaScreen TR-FRET human RORγ coactivator assay; format: biochemical; details: antagonist mode, read-out: Binding of RORγ LBD, IC50
T1 construct: The assay was performed with GST-tag RORγ LBD (25 ng/reaction, Creative Biomart); purchased Creative Biomart
T1 sequence (P51449 269-508 limits assumed): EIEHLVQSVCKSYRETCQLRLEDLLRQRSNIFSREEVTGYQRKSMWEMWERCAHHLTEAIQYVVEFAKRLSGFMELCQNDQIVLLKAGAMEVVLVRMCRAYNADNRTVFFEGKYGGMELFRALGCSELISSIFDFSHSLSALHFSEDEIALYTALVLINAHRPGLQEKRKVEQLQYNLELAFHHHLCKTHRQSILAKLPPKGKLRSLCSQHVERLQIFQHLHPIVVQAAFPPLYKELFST
From the text: In LanthaScreen TR-FRET RORγ coactivator assay, the RORγ LBD was constitutively active and the coactivator peptide (fluorescein-D22) was recruited in the absence of ligand, or compound (Fig. 2a). The binding of an antagonist to RORγ LBD causes a conformational change of the receptor, leading to a decrease in the affinity of the receptor for the coactivator peptide. The separation of the fluorescently labeled coactivator peptide from RORγ LBD from the receptor with the terbium-labeled antibody causes a decrease in the TR-FRET signal compared to those without compound. The assay was validated by detecting the ligand-independent recruitment of coactivator peptide in the presence or absence of RORγ LBD (2.5- to 3-fold assay window). Effects of the key compounds of the novel chemotype in Fig. 1, were tested in LanthaScreen TR-FRET RORγ coactivator assay.
The assay was performed with GST-tag RORγ LBD (25 ng/reaction, Creative Biomart), 0.6 μM Fluorescein-D22 coactivator peptide and 8 nM Tb anti-GST antibody (Invitrogen) at room temperature for 60 minutes. The fluorescent signals were measured with 520 nm emission and 495 nm excitation on Tecan Infinite. The data were calculated using DMSO control as 0% inhibition and non-protein control as 100% inhibition. IC50 values were calculated using non-linear regression analysis of GraphPad Prism in all assays.

Oral PK in SD rats = format: in vivo; details: male, rat, plasma; for AUC: read-out: Exposure in SD Rat, AUC; for Cmax: read-out: Exposure in SD Rat, Cmax; for half-life: read-out: Exposure in SD Rat, t1/2 (converted)
Procedure: Compounds were dissolved in 5% DMSO, 5% tween 80 and then added 90% saline. Male SD rats were dosed with the compound via oral (2 mg/kg or 5 mg/kg) routes, respectively after fasting overnight. Blood of the animals were collected at indicated time post dosing. Blood samples were then prepared for plasma and analyzed for the compounds using validated LC/MS assays. The experimental protocol used in this study was approved by IACUC. The experiments were conducted in accordance with the Guiding Principles for the Care and Use of Laboratory Animals and complied with the ARRIVE guidelines.

[4] = Liver microsomal stability, mouse; format: in vitro ADME; details: liver microsomes, pH 7.4, read-out: Liver microsomal stability, t1/2, Mouse
Procedure: as §1

psoriasis [5] = system: psoriasis; design: method as in PMID 29150844; details: ointment 0.03%, 0.1%, 0.8% and 4%, all doses; cited from earlier work
[6] = system: IMQ-induced mouse psoriasis-like inflammation model; design: method as in PMID 26870941; details: 1% GSK2981278 ointment vs placebo + IMQ control; cited from earlier work
psoriasis [7] = system: psoriasis; design: method as in PMID 27852111; details: oral, phase 2a, cited from earlier work
[8] = human, liver microsomes, 1 µM compound, 0.5 mg/ml microsome, NADPH, 37 °C, read-out: Liver microsomal stability, t1/2, Human

- half-life at 1 µM [1]: > 120 min
- half-life at 1 µM [3, 8]: > 120 min
- IC50 (RORγ LBD): 62 ± 18 nM
- AUC (Oral PK in SD rats; 5 mg/kg oral): 6980 ng·h/mL
- Cmax (Oral PK in SD rats; 5 mg/kg oral): 446 ng/mL
- half-life (Oral PK in SD rats; 5 mg/kg oral): 768 min
SMILES: CCS(=O)(=O)c1ccc(Cc2nc3c(Cl)c(-c4ccccc4OC(F)(F)F)c(Cl)cc3[nH]2)c(Cl)c1 [Compound 1, 4,6-dichloro-2-(2-chloro-4-(ethylsulfonyl)benzyl)-5-(2-(trifluoromethoxy)phenyl)-1H-benzo[d]imidazole]
- EC50 [2]: 30 ± 10 nM

- half-life at 1 µM [1]: 34.5 min
- half-life at 1 µM [4]: 7.8 min
- half-life at 1 µM [3, 8]: 18.5 min
- half-life at 1 µM ([3]; range across human, rat and mouse liver microsomes, read-out: t1/2 in human, rat and mouse liver microsome stability assays): 7.8 to 34.5 min
- IC50 (RORγ LBD): 40 ± 27 nM
- AUC (Oral PK in SD rats; 2 mg/kg oral): 352 ng·h/mL
- Cmax (Oral PK in SD rats; 2 mg/kg oral): 70 ng/mL
- half-life (Oral PK in SD rats; 2 mg/kg oral): 120 min
SMILES: CCS(=O)(=O)c1ccc(Cc2nc3c(Cl)c(N4CCC(F)(F)CC4)c(Cl)cc3[nH]2)cc1 [Compound 2, 4,6-dichloro-5-(4,4-difluoropiperidin-1-yl)-2-(4-(ethylsulfonyl)benzyl)-1H-benzo[d]imidazole]
- EC50 [2]: 46 ± 2 nM

SMILES: CCc1ccc(N(CC(C)C)S(=O)(=O)c2ccc(OCC3CCOCC3)c(CO)c2)cc1 [GSK2981278]
- Infiltrate thickness (psoriasis [5]): not changed
- reduction of epithermal thickness [6]: 23%

SMILES: CCS(=O)(=O)c1ccc(CNC(=O)c2cnc3c(c2)CN(C[C@H]2CC[C@H](C(F)(F)F)CC2)[C@H]3C(C)C)nc1 [VTP43742]
- efficacy in psoriatic patients (psoriasis [7]; four-week period): clear signal of efficacy
- transaminase (psoriasis [7]): elevations of reversible transaminase
